Values quoted from earlier work in patent US7803960B2, “Phenyloxyaniline derivatives” (Bayer Schering Pharma Aktiengesellschaft, priority 2006, dated 2010).

Key:
[1] = compared with [^11C]PK11195 (1)
[2] = test system: Peripheral benzodiazepine receptor (PBR); conditions: compared with [^11C]PK11195 (1)
PBRs = target: T1, PBRs (Homo sapiens, UniProt P30536); conditions: C-11 isotope labeled version, in vivo imaging
T1 construct: host or cells: brain, in vivo
T1 sequence (P30536 whole entry): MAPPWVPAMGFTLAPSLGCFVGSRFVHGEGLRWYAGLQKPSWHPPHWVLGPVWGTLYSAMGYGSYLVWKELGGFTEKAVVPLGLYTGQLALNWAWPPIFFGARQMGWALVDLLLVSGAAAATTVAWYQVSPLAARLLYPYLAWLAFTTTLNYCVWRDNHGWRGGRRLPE

| accumulation in the brain [1] | binding affinity to PBR [2] | Compound | signal in the brain (PBRs) |
| --- | --- | --- | --- |
| higher | higher | COc1ccc(O[11CH3])c(CN(C(C)=O)c2cc(F)ccc2Oc2ccccc2)c1 [Compound 2] |  |
| higher | higher | COc1ccc(OCC[18F])c(CN(C(C)=O)c2cc(F)ccc2Oc2ccccc2)c1 [Compound 3, N-(5-Fluoro-2-phenoxyphenyl)-N-(2-(2-[^18F]fluoroethoxy)-5-methoxybenzyl)acetamide] |  |
|  |  | CC[C@@H](C)N(C)C(=O)c1cc2ccccc2c(-c2ccccc2Cl)n1 [PK11195] | not high enough for stable quantitative analysis |
